Legend:
[1] = system: primary human umbilical vein endothelial cells (HUVEC); assay: In vitro transduction analysis (β-galactosidase, X-gal stain) on HUVEC; type: cell-based
Description: (§1) S8 cells are A549 cells stably transfected with adenoviral E1 and E2a genes under separate dexamethasone-inducible promoters (Gorziglia et al., 1996). S8 cells are cultured in IMEM (Biofluids, Rockville, Md.) with 10% heat inactivated fetal bovine serum (HIFBS). For virus production, the cells are cultured with 0.3 uM dexamethasone to induce the expression of E1 and E2a genes. H460 cells are a human non-small cell lung carcinoma (ATCC, Manassas, Va.) and are cultured in RPMI Medium 1640 (Life Technologies, Gaithersburg, Md.) with 10% HIFBS. PC3 cells are a human prostate carcinoma cell line (ATCC) and are cultured in RPMI Medium 1640 with 10% HIFBS. HeLa cells are a human cervical carcinoma cell line (ATCC) and are cultured in DMEM with 10% HIFBS. Primary human endothelial cells, in particular Human Umbilical Vein Endothelial Cells (HUVECs) are obtained from the Clonetics Corporation (Walkerville, Md.: AC-7018). The cells are cultured in the recommended medium.
(§2) The transduction efficiency of Av3nBgPD1 is surveyed using primary human umbilical vein endothelial cells (HUVEC) and on three human carcinoma cell lines including HeLa, PC3, and H460 cells. […] The percentage of transduction is determined by light microscopy by counting the number of positively transduced blue cells per field as described previously (Stevenson, et. al, 1997).

HeLa cells = assay: In vitro transduction analysis (β-galactosidase, X-gal stain) on HeLa; type: cell-based, human
Description: as §1, §2

PC3 cells = assay: In vitro transduction analysis (β-galactosidase, X-gal stain) on PC3; type: cell-based, human
Description: as §1, §2

CPDLHHHMC (Artificial sequence derived from human and animal adenovirus peptide sequences for binding to endothelial cell surface molecules) [PD1]
transduction compared with Av3nBg control, in words [1]: enhances transduction | transduction compared with Av3nBg control, in words (HeLa cells): offered no advantage | transduction compared with Av3nBg control, in words (PC3 cells): offered no advantage

— patent US20060223756A1, “Endothelial cell specifically binding peptides” (priority 2002, published 2006)
